Reference: ChEMBL document CHEMBL1955751, “Structure-activity relationship of the 7-hydroxy benzimidazole analogs as glycogen synthase kinase 3β inhibitor” (Bioorg Med Chem Lett, 2012)

How the values were obtained:
[1] = biological target: T1, Glycogen synthase kinase-3 beta (Homo sapiens, UniProt P49841); experiment: Inhibition of GSK3-beta
Target sequence in this assay (P49841 whole entry): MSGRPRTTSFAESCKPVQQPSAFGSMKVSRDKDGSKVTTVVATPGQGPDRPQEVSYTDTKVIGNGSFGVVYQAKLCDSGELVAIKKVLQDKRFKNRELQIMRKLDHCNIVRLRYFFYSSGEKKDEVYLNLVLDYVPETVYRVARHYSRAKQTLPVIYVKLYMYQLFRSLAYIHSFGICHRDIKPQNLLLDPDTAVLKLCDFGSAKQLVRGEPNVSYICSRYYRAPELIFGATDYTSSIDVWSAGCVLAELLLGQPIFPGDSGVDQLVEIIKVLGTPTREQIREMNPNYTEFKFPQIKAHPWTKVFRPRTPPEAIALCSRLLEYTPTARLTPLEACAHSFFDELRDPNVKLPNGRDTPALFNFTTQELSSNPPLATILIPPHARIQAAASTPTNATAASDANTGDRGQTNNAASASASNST

[2] = biological target: T1, Glycogen synthase kinase-3 beta; experiment: Inhibition of GSK3-beta in human RD cells; format: cell-based
Target sequence in this assay (P49841 whole entry): as above

[3] = biological target: T1, Glycogen synthase kinase-3 beta; experiment: Inhibition of GSK3-beta in human RD cells assessed as glycogen synthase activation measured after 24 hrs under serum starving condition; format: cell-based
Target sequence in this assay (P49841 whole entry): as above

[4] = Cytotoxicity against human RD cells by MTS assay; format: cell-based; details: read-out: CCIC50
[5] = biological target: T1, Glycogen synthase kinase-3 beta; experiment: Inhibition of GSK3-beta assessed as residual activity at 5 uM
Target sequence in this assay (P49841 whole entry, looked up): as the sequence (P49841 whole entry) above

[6] = biological target: Vascular endothelial growth factor receptor 2 (Homo sapiens) (UniProt P35968); experiment: Inhibition of KDR assessed as residual activity at 5 uM
[7] = biological target: Cyclin-dependent kinase 4 (Homo sapiens) (UniProt P11802); experiment: Inhibition of CDK4 assessed as residual activity at 5 uM
[8] = biological target: Mitogen-activated protein kinase 3 (Homo sapiens) (UniProt P27361); experiment: Inhibition of ERK1 assessed as residual activity at 5 uM
[9] = Ratio of CCIC50 for human RD cells to EC50 for GSK3-beta in human RD cells
[10] = Inhibition of AKT assessed as residual activity at 5 uM
[11] = biological target: T2, Inhibitor of nuclear factor kappa-B kinase subunit beta (Homo sapiens) (UniProt O14920); experiment: Inhibition of IKK-beta assessed as residual activity at 5 uM
T2 sequence (whole entry): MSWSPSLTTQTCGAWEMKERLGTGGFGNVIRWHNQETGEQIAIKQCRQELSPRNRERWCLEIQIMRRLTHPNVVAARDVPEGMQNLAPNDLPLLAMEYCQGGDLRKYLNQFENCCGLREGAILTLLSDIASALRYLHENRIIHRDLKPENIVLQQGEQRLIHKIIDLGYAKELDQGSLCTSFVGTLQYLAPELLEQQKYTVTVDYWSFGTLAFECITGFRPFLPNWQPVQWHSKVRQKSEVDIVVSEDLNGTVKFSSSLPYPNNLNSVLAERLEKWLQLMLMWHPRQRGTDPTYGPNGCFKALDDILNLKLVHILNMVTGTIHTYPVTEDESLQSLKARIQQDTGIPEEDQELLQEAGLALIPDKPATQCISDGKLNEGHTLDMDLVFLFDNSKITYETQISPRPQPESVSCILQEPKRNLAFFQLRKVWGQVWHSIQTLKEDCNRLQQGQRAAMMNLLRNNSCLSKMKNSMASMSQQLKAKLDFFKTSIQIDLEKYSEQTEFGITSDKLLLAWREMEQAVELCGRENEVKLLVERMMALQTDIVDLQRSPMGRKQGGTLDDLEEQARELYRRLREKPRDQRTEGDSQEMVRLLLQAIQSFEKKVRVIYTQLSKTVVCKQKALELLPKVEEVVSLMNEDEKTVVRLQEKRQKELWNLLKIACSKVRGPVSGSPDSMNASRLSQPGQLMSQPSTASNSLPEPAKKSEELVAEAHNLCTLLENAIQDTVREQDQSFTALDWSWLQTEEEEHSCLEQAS

[12] = biological target: Cyclin-dependent kinase 1 (Homo sapiens) (UniProt P06493); experiment: Inhibition of CDK1 assessed as residual activity at 5 uM
[13] = biological target: Mitogen-activated protein kinase 1 (Homo sapiens) (UniProt P28482); experiment: Inhibition of ERK2 assessed as residual activity at 5 uM
Sequence of Mitogen-activated protein kinase 1 (Homo sapiens) (P28482 whole entry): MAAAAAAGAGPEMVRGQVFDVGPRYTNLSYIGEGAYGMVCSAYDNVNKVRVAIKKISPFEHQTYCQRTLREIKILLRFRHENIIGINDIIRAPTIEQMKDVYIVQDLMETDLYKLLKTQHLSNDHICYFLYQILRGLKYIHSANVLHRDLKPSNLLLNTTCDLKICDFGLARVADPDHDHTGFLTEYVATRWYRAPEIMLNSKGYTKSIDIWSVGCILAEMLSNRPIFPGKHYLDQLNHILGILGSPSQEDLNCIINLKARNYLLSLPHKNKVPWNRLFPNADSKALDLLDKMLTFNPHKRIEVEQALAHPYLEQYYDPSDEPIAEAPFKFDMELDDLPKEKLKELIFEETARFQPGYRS

Sequence of Cyclin-dependent kinase 4 (Homo sapiens) (P11802 whole entry): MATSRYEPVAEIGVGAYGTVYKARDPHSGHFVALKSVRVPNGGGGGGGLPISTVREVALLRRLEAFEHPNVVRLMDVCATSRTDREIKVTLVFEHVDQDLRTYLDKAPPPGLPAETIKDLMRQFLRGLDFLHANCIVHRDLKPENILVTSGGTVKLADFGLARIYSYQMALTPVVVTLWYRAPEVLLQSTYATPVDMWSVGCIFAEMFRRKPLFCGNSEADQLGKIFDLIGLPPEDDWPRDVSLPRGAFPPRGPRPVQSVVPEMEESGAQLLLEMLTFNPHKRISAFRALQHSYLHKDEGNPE
Sequence of Cyclin-dependent kinase 1 (Homo sapiens) (P06493 whole entry, looked up): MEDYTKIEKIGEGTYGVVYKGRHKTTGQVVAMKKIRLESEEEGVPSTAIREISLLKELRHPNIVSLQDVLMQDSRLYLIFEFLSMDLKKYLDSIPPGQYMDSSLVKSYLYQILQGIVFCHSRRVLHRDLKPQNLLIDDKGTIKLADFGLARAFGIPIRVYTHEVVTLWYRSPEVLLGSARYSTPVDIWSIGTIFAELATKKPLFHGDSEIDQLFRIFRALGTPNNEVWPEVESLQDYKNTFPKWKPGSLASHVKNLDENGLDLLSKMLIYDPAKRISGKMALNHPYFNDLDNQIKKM
Sequence of Vascular endothelial growth factor receptor 2 (Homo sapiens) (P35968 whole entry): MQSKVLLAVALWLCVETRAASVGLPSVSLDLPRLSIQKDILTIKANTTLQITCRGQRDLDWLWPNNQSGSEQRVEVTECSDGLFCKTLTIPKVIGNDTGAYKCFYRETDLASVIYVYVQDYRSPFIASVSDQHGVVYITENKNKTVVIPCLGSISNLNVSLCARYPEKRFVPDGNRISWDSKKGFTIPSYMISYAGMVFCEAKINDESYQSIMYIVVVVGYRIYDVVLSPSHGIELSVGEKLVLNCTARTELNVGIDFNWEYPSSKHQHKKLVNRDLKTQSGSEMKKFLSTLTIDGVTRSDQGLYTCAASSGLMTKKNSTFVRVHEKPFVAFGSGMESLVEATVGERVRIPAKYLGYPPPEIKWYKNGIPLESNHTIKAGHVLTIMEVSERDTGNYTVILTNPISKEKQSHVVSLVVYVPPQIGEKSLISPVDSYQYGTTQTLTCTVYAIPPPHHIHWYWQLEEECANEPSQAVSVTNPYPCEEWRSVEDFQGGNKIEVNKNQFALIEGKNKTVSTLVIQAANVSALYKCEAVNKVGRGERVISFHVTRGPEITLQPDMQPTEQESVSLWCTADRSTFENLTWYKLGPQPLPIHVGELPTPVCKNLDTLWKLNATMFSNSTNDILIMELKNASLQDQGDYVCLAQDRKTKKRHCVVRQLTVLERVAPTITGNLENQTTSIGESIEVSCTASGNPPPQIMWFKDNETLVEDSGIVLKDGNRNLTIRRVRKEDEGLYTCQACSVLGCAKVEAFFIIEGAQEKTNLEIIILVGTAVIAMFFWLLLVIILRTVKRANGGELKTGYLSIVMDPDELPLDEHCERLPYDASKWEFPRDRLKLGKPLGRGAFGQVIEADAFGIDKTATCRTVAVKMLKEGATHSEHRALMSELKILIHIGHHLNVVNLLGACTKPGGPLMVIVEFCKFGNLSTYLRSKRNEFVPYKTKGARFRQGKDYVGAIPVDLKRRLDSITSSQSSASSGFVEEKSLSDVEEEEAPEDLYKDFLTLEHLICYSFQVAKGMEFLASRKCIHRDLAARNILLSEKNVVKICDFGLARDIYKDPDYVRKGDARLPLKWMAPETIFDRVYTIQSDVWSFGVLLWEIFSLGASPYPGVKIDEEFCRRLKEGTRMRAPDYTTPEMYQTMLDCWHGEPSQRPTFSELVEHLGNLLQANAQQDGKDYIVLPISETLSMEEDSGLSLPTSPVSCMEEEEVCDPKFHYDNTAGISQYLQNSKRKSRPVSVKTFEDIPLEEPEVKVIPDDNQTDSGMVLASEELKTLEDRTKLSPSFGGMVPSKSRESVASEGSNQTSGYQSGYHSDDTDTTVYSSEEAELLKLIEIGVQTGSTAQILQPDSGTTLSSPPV
Sequence of Mitogen-activated protein kinase 3 (Homo sapiens) (P27361 whole entry): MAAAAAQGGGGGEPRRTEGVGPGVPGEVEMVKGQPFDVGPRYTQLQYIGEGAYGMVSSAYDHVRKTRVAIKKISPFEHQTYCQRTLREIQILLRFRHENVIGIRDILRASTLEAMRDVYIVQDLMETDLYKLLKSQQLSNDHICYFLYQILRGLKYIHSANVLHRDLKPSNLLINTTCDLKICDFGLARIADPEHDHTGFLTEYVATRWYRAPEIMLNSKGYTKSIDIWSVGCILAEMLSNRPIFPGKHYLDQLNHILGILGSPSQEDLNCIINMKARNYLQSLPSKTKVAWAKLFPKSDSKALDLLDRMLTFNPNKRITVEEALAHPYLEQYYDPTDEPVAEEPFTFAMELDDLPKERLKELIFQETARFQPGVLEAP

| IC50 [1] [µM] | EC50 [2] [µM] | Activity [5] [%] | SMILES | CC50 [4] [µM] | Ratio [9] | other results |
| --- | --- | --- | --- | --- | --- | --- |
| 0.006 | 0.11 |  | O=C(NCCCn1cnc(Cl)c1Cl)c1ccc(O)c2nc(-c3ccc(Cl)cc3Cl)[nH]c12 | 60 |  | EC50 [3]: 0.17 µM |
|  |  | 0.9 | CCN1CCN(C(=O)c2ccc(CCNC(=O)c3ccc(O)c4[nH]c(-c5cccs5)nc34)cc2)CC1 |  | 127 | Activity [6]: 60.8%; Activity [7]: 68.2%; Activity [8]: 80.9%; Activity [10]: 96%; Activity [11]: 72.7%; Activity [12]: 70.4%; Activity [13]: 80.7% |
| 0.01 | 0.05 |  | O=C(NCCCn1cnc(Cl)c1Cl)c1ccc(O)c2nc(-c3ccco3)[nH]c12 | 70 |  | EC50 [3]: 0.04 µM |
| 0.015 | 0.24 |  | O=C(NCCCn1ccnc1)c1ccc(O)c2[nH]c(-c3ccc(Cl)cc3Cl)nc12 | 45 | 187 |  |
|  | 0.095 |  | Cc1ccc(S(=O)(=O)Nc2ccc(CCNC(=O)c3ccc(O)c4[nH]c(-c5ccc(F)cc5)nc34)cc2)cc1 | 17.5 | 184 |  |
|  |  | -0.58 | CS(=O)(=O)Nc1ccc(CCNC(=O)c2ccc(O)c3[nH]c(-c4ccc(F)cc4F)nc23)cc1 |  |  | Activity [6]: 114%; Activity [7]: 49.2%; Activity [8]: 73.4%; Activity [11]: 93.1%; Activity [13]: 91.4% |
|  | 0.4 |  | CS(=O)(=O)Nc1ccc(CCNC(=O)c2ccc(O)c3[nH]c(-c4ccc(F)cc4)nc23)cc1 |  |  |  |
| 0.02 | 0.23 |  | CS(=O)(=O)Nc1ccc(CCNC(=O)c2ccc(O)c3[nH]c(-c4ccc(F)cc4Cl)nc23)cc1 |  |  |  |
|  | 0.49 |  | O=C(NCCCn1ccnc1)c1ccc(O)c2nc(-c3ccc(F)c(Cl)c3)[nH]c12 | > 100 |  | EC50 [3]: 0.1 µM |
|  |  | 0 | O=C(NCCCn1cnc(Cl)c1Cl)c1ccc(O)c2[nH]c(-c3ccc(Cl)cc3Cl)nc12 |  | 545 | Activity [6]: 109%; Activity [7]: 74.9%; Activity [8]: 97.9%; Activity [11]: 80.7%; Activity [13]: 102% |
|  |  | 63 | CCCCNC(=O)c1ccc(O)c2[nH]c(Cc3ccccc3)nc12 |  |  |  |
|  |  | -1.7 | O=C(NCCCn1cnc(Cl)c1Cl)c1ccc(O)c2[nH]c(-c3ccco3)nc12 |  | 1400 | Activity [6]: 83.6%; Activity [7]: 38.6%; Activity [8]: 53.9%; Activity [10]: 92.3%; Activity [11]: 74.7%; Activity [12]: 65.2%; Activity [13]: 70.6% |
| 0.14 | 4.8 |  | CS(=O)(=O)Nc1ccc(CCNC(=O)c2ccc(O)c3nc(C4CC4)[nH]c23)cc1 |  |  |  |
|  | 21 |  | Cc1nc2c(O)ccc(C(=O)NCCc3ccc(NS(C)(=O)=O)cc3)c2[nH]1 |  |  |  |
| 1.6 | 3.9 | 18 | CS(=O)(=O)Nc1ccc(CCNC(=O)c2ccc(O)c3[nH]c(Cc4ccccc4)nc23)cc1 |  |  |  |
|  |  | 32 | O=C(NCCc1ccc([N+](=O)[O-])cc1)c1ccc(O)c2[nH]c(Cc3ccccc3)nc12 |  |  |  |
| 0.008 | 0.034 |  | O=C(NCCCn1cnc(Cl)c1Cl)c1ccc(O)c2[nH]c(-c3cccs3)nc12 | > 100 | >2941 |  |
| 2.8 |  | 36 | Cc1ccc(S(=O)(=O)Nc2ccc(CCNC(=O)c3ccc(O)c4[nH]c(Cc5ccccc5)nc34)cc2)cc1 |  |  |  |
|  | 0.58 |  | CS(=O)(=O)Nc1ccc(CCNC(=O)c2ccc(O)c3nc(-c4ccc(F)cc4F)[nH]c23)cc1 |  |  | EC50 [3]: 0.013 µM |
| 0.044 | 2.7 |  | CS(=O)(=O)Nc1ccc(CCNC(=O)c2ccc(O)c3[nH]c(C4CCCC4)nc23)cc1 |  |  |  |
| 0.05 | 0.31 |  | Cc1cn(CCCNC(=O)c2ccc(O)c3[nH]c(-c4cccs4)nc23)cn1 | > 100 | >322 |  |
|  |  | 75 | NC(=O)c1ccc(O)c2[nH]c(Cc3ccccc3)nc12 |  |  |  |
|  |  | 1 | O=C(NCCCn1ccnc1)c1ccc(O)c2[nH]c(-c3ccc(F)c(Cl)c3)nc12 |  | >204 | Activity [6]: 85.3%; Activity [7]: 52.4%; Activity [8]: 66.5%; Activity [10]: 83.9%; Activity [11]: 80%; Activity [12]: 71.3%; Activity [13]: 76% |
| 0.007 | 0.12 |  | CS(=O)(=O)Nc1ccc(CCNC(=O)c2ccc(O)c3[nH]c(-c4ccc(Cl)cc4)nc23)cc1 | 28 | 233 |  |
| 0.031 | 0.25 |  | O=C(O)COc1cccc(CCCNC(=O)c2ccc(O)c3nc(-c4ccc(Cl)cc4)[nH]c23)c1 | 17 |  | EC50 [3]: 0.08 µM |
| 0.11 | 25 |  | CS(=O)(=O)Nc1ccc(CCNC(=O)c2ccc(O)c3nc(-c4ccncc4)[nH]c23)cc1 |  |  |  |
| 0.046 | 0.4 |  | CCN1CCN(C(=O)c2ccc(CCNC(=O)c3ccc(O)c4nc(-c5cccs5)[nH]c34)cc2)CC1 | 51 |  |  |
|  |  | 0.3 | O=C(O)COc1cccc(CCCNC(=O)c2ccc(O)c3[nH]c(-c4ccc(Cl)cc4)nc23)c1 |  | 68 | Activity [6]: 54.5%; Activity [7]: 58.6%; Activity [8]: 80%; Activity [10]: 100%; Activity [11]: 87.3%; Activity [12]: 90.9%; Activity [13]: 104% |
| 2 |  |  | O=C(NCCc1ccc([N+](=O)[O-])cc1)c1ccc(O)c2nc(Cc3ccccc3)[nH]c12 |  |  |  |
|  |  | 53 | O=C(NCc1cccc(O)c1)c1ccc(O)c2[nH]c(Cc3ccccc3)nc12 |  |  |  |
